Measurements taken from publication PMC8494430, “Development of a fluorogenic ADAMTS-7 substrate” (Journal of Enzyme Inhibition and Medicinal Chemistry, 2021).

Assays:
[1] = Appearance of solution upon dilution of peptide in assay buffer (solubility); format: physicochemical; settings: 10 mM DMSO stock diluted in assay buffer
Method: The cleavage sites ^193Arg↓Ala^194 and ^195Glu↓Ala^196 were chosen to design the FRET substrate ATS7FP0 (Table 1). This peptide covers residues Ala^188-Ala^198 in LTBP4S and contains a FAM/TAMRA fluorophore/quencher pair. The quencher is covalently linked to the ε amino group of an extra C-terminal lysine residue. Stock solutions were routinely prepared at 10 mM in DMSO and stored at −80 °C. […] This was most likely due to the high content in hydrophobic amino acids of this peptide, which added to the hydrophobicity of the fluorophore/quencher pair. Nevertheless, ATS7FP0 generated fluorescence upon cleavage by ADAMTS-7 (Figure 2(A)). With the aim to improve both solubility and cleavage rate by ADAMTS-7, seven additional peptides were designed using the sequence of ATS7FP0 as a starting point. The N-terminal alanine residue present in ATS7FP0 was removed to generate peptide ATS7FP7 with a reduced aliphatic index (Table 1). […] To assess the effect of a P4′ proline residue on the cleavage rate, peptide ATS7FP7 was modified to generate ATS7FP8. […] Since we also determined that ADAMTS-7 prefers arginine in P1 (Figure 1(D)), we mutated one alanine residue in the parental sequence into arginine with the aim to improve both cleavage rate and hydrophilicity, thus generating peptide ATS7FP3. […]

ADAMTS-7 = target: T1, ADAMTS-7 (Homo sapiens, UniProt Q9UKP4); test: Cleavage of FRET peptides by ADAMTS-7 (kinetic constants, cleavage rate); format: biochemical; settings: 37 °C
T1 construct: the recombinant construct ADAMTS7-T8, which lacks the C-terminal PLAC domain; made in house
T1 sequence (Q9UKP4 237-1631 limits assumed): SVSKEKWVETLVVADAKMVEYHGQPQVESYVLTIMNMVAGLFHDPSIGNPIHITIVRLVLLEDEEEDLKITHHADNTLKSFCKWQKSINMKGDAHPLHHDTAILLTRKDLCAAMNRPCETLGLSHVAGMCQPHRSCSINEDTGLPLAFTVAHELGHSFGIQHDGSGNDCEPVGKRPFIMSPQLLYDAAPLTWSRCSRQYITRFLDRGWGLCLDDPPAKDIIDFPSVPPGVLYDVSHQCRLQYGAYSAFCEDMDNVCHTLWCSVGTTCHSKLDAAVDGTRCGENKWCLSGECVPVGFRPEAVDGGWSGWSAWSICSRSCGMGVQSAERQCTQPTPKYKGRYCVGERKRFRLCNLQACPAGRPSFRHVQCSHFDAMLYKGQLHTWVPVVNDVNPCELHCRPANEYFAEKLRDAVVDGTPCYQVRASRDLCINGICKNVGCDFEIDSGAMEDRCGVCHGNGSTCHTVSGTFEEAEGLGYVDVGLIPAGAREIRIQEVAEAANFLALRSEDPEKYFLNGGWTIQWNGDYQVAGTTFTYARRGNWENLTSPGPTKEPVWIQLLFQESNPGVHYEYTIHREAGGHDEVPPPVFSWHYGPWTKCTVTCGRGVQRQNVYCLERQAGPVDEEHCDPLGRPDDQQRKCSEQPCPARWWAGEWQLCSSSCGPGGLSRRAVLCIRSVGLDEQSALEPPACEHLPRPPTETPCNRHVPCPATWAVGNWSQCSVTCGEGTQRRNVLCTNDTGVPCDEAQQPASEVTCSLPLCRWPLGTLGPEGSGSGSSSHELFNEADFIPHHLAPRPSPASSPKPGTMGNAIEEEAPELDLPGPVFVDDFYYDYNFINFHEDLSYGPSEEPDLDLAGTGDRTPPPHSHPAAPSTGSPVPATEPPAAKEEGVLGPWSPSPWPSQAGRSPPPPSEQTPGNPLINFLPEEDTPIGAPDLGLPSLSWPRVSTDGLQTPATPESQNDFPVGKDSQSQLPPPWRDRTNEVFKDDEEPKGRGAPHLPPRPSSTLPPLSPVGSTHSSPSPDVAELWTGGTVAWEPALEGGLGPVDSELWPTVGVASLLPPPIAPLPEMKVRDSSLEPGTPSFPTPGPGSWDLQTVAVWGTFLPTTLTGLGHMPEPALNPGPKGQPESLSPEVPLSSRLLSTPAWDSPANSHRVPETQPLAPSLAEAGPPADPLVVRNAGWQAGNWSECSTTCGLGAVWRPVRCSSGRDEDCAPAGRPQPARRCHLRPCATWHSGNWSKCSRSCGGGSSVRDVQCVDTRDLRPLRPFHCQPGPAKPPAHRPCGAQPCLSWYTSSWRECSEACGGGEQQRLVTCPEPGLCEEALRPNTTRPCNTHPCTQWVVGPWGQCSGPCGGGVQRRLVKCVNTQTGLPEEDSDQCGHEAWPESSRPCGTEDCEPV
Method: All enzyme assays were conducted in TNC-B buffer (50 mM Tris- HCl, pH 7.5, 150 mM NaCl, 10 mM CaCl2, and 0.02% NaN3) at 37 °C in 384 well plates (Cat. No: 784900, Greiner Bio-One, Austria). To avoid the formation of inhibitor or peptide aggregates, the detergent Brij-35 (0.05%) was added to TNC-B[13]. For inhibition studies, stock solutions of chemical compounds were prepared in dimethyl sulfoxide (DMSO) (10 mM). These were further diluted at different concentrations in TNC-B and incubated with ADAMTS-1, ADAMTS-4, ADAMTS-5, ADAMTS-7 or ADAMTS-8 (10 nM) for 1 h at 37 °C. Blank samples were prepared using buffer only and the rate of cleavage for blank reactions was subtracted from the rates measured in the presence of enzyme. Upon addition of the indicated ADAMTS-7 FRET substrates (40 µM), the fluorescence was measured immediately using a FLUOstar Omega microplate reader (BMG Labtech, Germany) with an excitation filter wavelength of 485 nm and an emission filter wavelength of 520 nm.
Relative Fluorescence Units (RFU) were converted into product concentration by dividing for the number of RFU generated upon complete digestion of 2.5 µM substrate. kcat values were determined by dividing Vmax by [E]t. Correction for inner filter effects was performed as before.

[2] = cleavage of ATS7FP7 by ADAMTS-7 (10 nM)

Question: What does the source list for “Glu-Ala-Ala-Ala-Arg↓Ala-Glu↓Ala-Ala-Ala-Lys [ATS7FP7]”?
Answer: appearance of solution upon dilution in the assay buffer (solubility) [1]: homogeneous; cleavage rate by ADAMTS-7 (ADAMTS-7; FRET peptides 40 μM, ADAMTS-7 10 nM): increased compared to that of ATS7FP0; Km (ADAMTS-7; [2]): 10.5 ± 1.5 µM; kcat (ADAMTS-7; [2]): 0.035 ± 0.0017 s⁻¹
